Source: ChEMBL document CHEMBL1201862, “PubChem BioAssay data set” (2004)
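Method: 48-hour compound exposure of cells in 96-well plates, five concentrations, linear interpolation of endpoints. The concentration for 50% growth inhibition is given as GI50.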 Activity calls are given as the source filed them. Rule as the data show it: active = GI50 up to about 1.1 µM and inactive = higher.

Key:
Assay in all cases: NCI-60 cell line screen, 48 h
[1] = system: Malme-3M
[2] = system: COLO 205
[3] = system: XF498
[4] = system: SF-295
[5] = system: DMS-273
[6] = system: MDA-MB-435
[7] = system: SW-620
[8] = system: HT-29
[9] = system: MOLT-4
[10] = system: KM12
[11] = system: OVCAR-3
[12] = system: NCI-H23
[13] = system: M14
[14] = system: K562
[15] = system: NCI-H226
[16] = system: IGROV-1
[17] = system: M19-MEL
[18] = system: SR
[19] = system: U-251
[20] = system: T47D
[21] = system: NCI-H522
[22] = system: UACC-62
[23] = system: CCRF-CEM
[24] = system: NCI-H460
[25] = system: PC-3
[26] = system: DMS-114
[27] = system: SN12C
[28] = system: BT-549
[29] = system: 786-0
[30] = system: HL-60
[31] = system: SF-539
[32] = system: DLD-1
[33] = system: A549
[34] = system: SK-MEL-5
[35] = system: MDA-MB-231
[36] = system: SNB-75
[37] = system: Hs-578T
[38] = system: KM-20L2
[39] = system: MCF7
[40] = system: MDA-N
[41] = system: HCC 2998
[42] = system: SK-MEL-2
[43] = system: RPMI-8226
[44] = system: SNB-78
[45] = system: EKVX
[46] = system: UO-31
[47] = system: HOP-92
[48] = system: TK-10
[49] = system: SK-OV-3
[50] = system: HOP-62
[51] = system: OVCAR-4
[52] = system: SK-MEL-28
[53] = system: OVCAR-8
[54] = system: A498
[55] = system: HCT-116
[56] = system: DU-145
[57] = system: RXF 393
[58] = system: HCT-15
[59] = system: CAKI-1
[60] = system: LXFL 529
[61] = system: UACC-257
[62] = system: SNB-19
[63] = system: OVCAR-5
[64] = system: LOX IMVI
[65] = system: ACHN
[66] = system: SF-268
[67] = system: NCI/ADR-RES
[68] = system: HOP-18

CCOCC(=O)N[C@H]1CCc2cc(OC)c(OC)c(OC)c2-c2ccc(OC)c(=O)cc21
GI50 [1]: 22.9 nM (active)
GI50 [2]: 13.7 nM (active)
GI50 [3]: 13.8 nM (active)
GI50 [4]: 20.6 nM (active)
GI50 [5]: 12.8 nM (active)
GI50 [6]: 12.3 nM (active)
GI50 [7]: 16.9 nM (active)
GI50 [8]: 14.6 nM (active)
GI50 [9]: 23.1 nM (active)
GI50 [10]: 12.9 nM (active)
GI50 [11]: 14.8 nM (active)
GI50 [12]: 13.2 nM (active)
GI50 [13]: 17.9 nM (active)
GI50 [14]: < 12.8 nM (active)
GI50 [15]: 76.2 nM (active)
GI50 [16]: 24.1 nM (active)
GI50 [17]: < 20.2 nM (active)
GI50 [18]: < 20.6 nM (active)
GI50 [19]: 17.3 nM (active)
GI50 [20]: > 100000 nM (inactive)
GI50 [21]: 14.3 nM (active)
GI50 [22]: 15.3 nM (active)
GI50 [23]: 44.4 nM (active)
GI50 [24]: 16.5 nM (active)
GI50 [25]: < 15.4 nM (active)
GI50 [26]: 14.8 nM (active)
GI50 [27]: 23.9 nM (active)
GI50 [28]: < 32.1 nM (active)
GI50 [29]: 19.9 nM (active)
GI50 [30]: < 10 nM (active)
GI50 [31]: 14.8 nM (active)
GI50 [32]: 19 nM (active)
GI50 [33]: 21.1 nM (active)
GI50 [34]: 13.3 nM (active)
GI50 [35]: < 14.5 nM (active)
GI50 [36]: < 19.1 nM (active)
GI50 [37]: 20.3 nM (active)
GI50 [38]: 11.8 nM (active)
GI50 [39]: 20.7 nM (active)
GI50 [40]: 12.2 nM (active)
GI50 [41]: 14.1 nM (active)
GI50 [42]: 17.4 nM (active)
GI50 [43]: 77.8 nM (active)
GI50 [44]: < 14.7 nM (active)
GI50 [45]: > 15800 nM (inactive)
GI50 [46]: 3560 nM (inactive)
GI50 [47]: 30.3 nM (active)
GI50 [48]: 2460 nM (inactive)
GI50 [49]: 111 nM (active)
GI50 [50]: 23.2 nM (active)
GI50 [51]: 3620 nM (inactive)
GI50 [52]: 2230 nM (inactive)
GI50 [53]: 19.4 nM (active)
GI50 [54]: 22.9 nM (active)
GI50 [55]: 14 nM (active)
GI50 [56]: 21.3 nM (active)
GI50 [57]: 81.1 nM (active)
GI50 [58]: 86.5 nM
GI50 [59]: 57.7 nM (active)
GI50 [60]: 24 nM (active)
GI50 [61]: 37.7 nM (active)
GI50 [62]: 164 nM (active)
GI50 [63]: 741 nM (active)
GI50 [64]: < 12.5 nM (active)
GI50 [65]: 96.2 nM (active)
GI50 [66]: 23.3 nM (active)
GI50 [67]: 982 nM (active)

[O-][S+](Cc1cnc2ccccc2c1)c1nc2ccccc2nc1-c1cccs1 (stereo unspecified)
GI50 [1]: 19200 nM (inactive)
GI50 [2]: 19500 nM (inactive)
GI50 [3]: 4060 nM (inactive)
GI50 [4]: 25500 nM (inactive)
GI50 [5]: 13700 nM (inactive)
GI50 [8]: 16600 nM (inactive)
GI50 [9]: 4940 nM (inactive)
GI50 [11]: 19700 nM (inactive)
GI50 [12]: 14900 nM (inactive)
GI50 [13]: 15100 nM (inactive)
GI50 [14]: 7460 nM (inactive)
GI50 [15]: 430 nM (active)
GI50 [16]: 16800 nM (inactive)
GI50 [19]: 18700 nM (inactive)
GI50 [23]: 5080 nM (inactive)
GI50 [26]: 10500 nM (inactive)
GI50 [27]: 14500 nM (inactive)
GI50 [29]: 13200 nM (inactive)
GI50 [30]: 4310 nM (inactive)
GI50 [31]: 17900 nM (inactive)
GI50 [33]: 19700 nM (inactive)
GI50 [36]: 19100 nM (inactive)
GI50 [43]: 25400 nM (inactive)
GI50 [44]: 20300 nM (inactive)
GI50 [45]: 6310 nM (inactive)
GI50 [46]: 14800 nM (inactive)
GI50 [47]: 11200 nM (inactive)
GI50 [68]: 17500 nM (inactive)
GI50 [49]: 29200 nM (inactive)
GI50 [51]: 10500 nM (inactive)
GI50 [52]: 16900 nM (inactive)
GI50 [53]: 17500 nM (inactive)
GI50 [55]: 10600 nM (inactive)
GI50 [60]: 8550 nM (inactive)
GI50 [61]: 16000 nM (inactive)
GI50 [62]: 22400 nM (inactive)
GI50 [63]: 13500 nM (inactive)
GI50 [65]: 13600 nM (inactive)
GI50 [66]: 16100 nM (inactive)
